In patent US20260193249A1, “PREPARATION OF PYRAZOLOPYRIDINE AND TRIAZOLOPYRIDINE DERIVATIVES AS NOVEL DIACYLGLYCERIDE O-ACYLTRANSFERASE 2 INHIBITORS” (Merck Sharp & Dohme LLC, priority 2022, published 2026):

Each molecule was assayed against T1, human DGAT2 (Homo sapiens, UniProt Q96PD7) (assay: DGAT2 Enzymatic Activity Assay). Conditions: membrane prep of Sf-9 insect cells expressing hDGAT2; 13C18-triolein product by LC/MS/MS; 25 μM diolein, 5 μM 13C oleoyl-CoA.
T1 construct: made in house; host or cells: Sf-9 insect cells (baculovirus), membrane fraction
T1 sequence (Q96PD7 1-388): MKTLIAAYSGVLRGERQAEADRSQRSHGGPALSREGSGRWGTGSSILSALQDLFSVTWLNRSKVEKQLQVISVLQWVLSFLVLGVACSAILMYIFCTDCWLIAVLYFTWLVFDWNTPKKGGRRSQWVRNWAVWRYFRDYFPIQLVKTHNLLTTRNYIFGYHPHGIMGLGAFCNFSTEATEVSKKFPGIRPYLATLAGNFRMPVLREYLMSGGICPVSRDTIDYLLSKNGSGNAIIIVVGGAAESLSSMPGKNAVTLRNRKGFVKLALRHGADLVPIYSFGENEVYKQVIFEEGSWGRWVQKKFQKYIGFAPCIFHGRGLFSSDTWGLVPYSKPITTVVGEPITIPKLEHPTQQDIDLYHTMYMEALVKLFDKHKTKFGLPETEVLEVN
Type: biochemical
Description: Sf-9 insect cells were maintained in Grace's insect cell culture medium with 10% heated-inactivated fetal bovine serum, 1% Pluronic F-68 and 0.14 μg/ml Kanamycine sulfate at 27° C. in a shaker incubator. After infection with untagged baculovirus expressing human DGAT2 (hDGAT2) at multiplicity of infection (MOI) 3 for 48 hours, cells were harvested. Cell pellets were suspended in buffer containing 10 mM Tris-HCl pH 7.5, 1 mM EDTA, 250 mM sucrose and Complete Protease Inhibitor Cocktail (Sigma Aldrich), and sonicated on ice. Cell debris were removed by centrifugation at 2000×g for 15 minutes. Membrane fractions were isolated by ultracentrifugation (100,000×g), resuspended in the same buffer, and frozen (−80° C.) for later use. The protein concentration was determined with the Pierce™ BCA Protein Assay Kit (Thermo Fisher Scientific).
LC/MS/MS analyses were performed using Thermal Fisher's LX4-TSQ Vantage system. This system consists of an Agilent binary high-performance liquid chromatography (HPLC) pump and a TSQ Vantage triple quadrupole MS/MS instrument. For each sample, 2 μL samples from the top organic layer of in-plate liquid-liquid extraction were injected onto a Thermo Betabasic C4 column (2.1 mm×20 mm, 5 μm particle size). The samples were then eluted using the following conditions; mobile phase: Isopropanol:acetonitrile/10 mM ammonium formate=50/35/15 (v/v/v), flow rate: 0.8 mL/min, temperature: 25° C. Data was acquired in positive mode using a heated electrospray ionization (HESI) interface. […] The peak area was integrated by Xcalibur Quan software. The ratio between the ^13C18triolein generated in the reaction and spiked in internal standard ^13C21-triolein was used to generate percentage inhibition and IC50 values. Compound percentage inhibition was calculated by the following formula: Inhibition %=1−[(compound response−low control)/(high control−low control)]×100%.
DGAT2 activity was determined by measuring the amount of enzymatic product ^13C18-triolein (^13C-1,2,3-Tri(cis-9-octadecenoyl)glycerol) using the membrane prep mentioned above. The assay was carried out in ABgene 384-well assay plates in a final volume of 25 μL at rt.
Molecule `CC1(NC(=O)c2cc3cc(Oc4nccnc4OCC(F)(F)F)ccn3n2)CCS(=O)(=O)CC1` [Example 13, N-(4-Methyl-1,1-dioxidotetrahydro-2H-thiopyran-4-yl)-5-((3-(2,2,2-trifluoroethoxy)pyrazin-2-yl)oxy)pyrazolo[1,5-a]pyridine-2-carboxamide] has an IC50 of 17 nM. `CC1(NC(=O)c2cc3cc(Oc4ncc(Cl)cc4OCC(F)(F)F)ccn3n2)CS(=O)(=O)C1` [Example 15, 5-((5-Chloro-3-(2,2,2-trifluoroethoxy)pyridin-2-yl)oxy)-N-(3-methyl-1,1-dioxidothietan-3-yl)pyrazolo[1,5-a]pyridine-2-carboxamide] gave an IC50 of 2.5 nM. For `CC1(NC(=O)c2cc3cc(Oc4ncc(F)cc4OCC(F)(F)F)ccn3n2)CS(=O)(=O)C1` [Example 17, 5-((5-Fluoro-3-(2,2,2-trifluoroethoxy)pyridin-2-yl)oxy)-N-(3-methyl-1,1-dioxidothietan-3-yl)pyrazolo[1,5-a]pyridine-2-carboxamide], the IC50 was 72 nM. With `C[C@@]1(NC(=O)c2cc3cc(Oc4ncc(F)cc4OCC(F)(F)F)ccn3n2)CCS(=O)(=O)C1` [Example 18, (R)-5-((5-Fluoro-3-(2,2,2-trifluoroethoxy)pyridin-2-yl)oxy)-N-(3-methyl-1,1-dioxidotetrahydrothiophen-3-yl)pyrazolo[1,5-a]pyridine-2-carboxamide] the IC50 was 33 nM. Work on `Cc1c(C(=O)NC2(C)CCS(=O)(=O)CC2)nn2ccc(Oc3ncccc3OCC(F)(F)F)cc12` [Example 19, 3-Methyl-N-(4-methyl-1,1-dioxidotetrahydro-2H-thiopyran-4-yl)-5-((3-(2,2,2-trifluoroethoxy)pyridin-2-yl)oxy)pyrazolo[1,5-a]pyridine-2-carboxamide] yielded an IC50 of 7.2 nM. For `Cc1c(C(=O)NC2(C)CS(=O)(=O)C2)nn2ccc(Oc3ncccc3OCC(F)(F)F)cc12` [Example 20, 3-Methyl-N-(3-methyl-1,1-dioxidothietan-3-yl)-5-((3-(2,2,2-trifluoroethoxy)pyridin-2-yl)oxy)pyrazolo[1,5-a]pyridine-2-carboxamide], the IC50 was 171 nM. In the case of `CC1(NC(=O)c2nn3ccc(Oc4ncccc4OCC(F)(F)F)cc3c2F)CS(=O)(=O)C1` [Example 22, 3-Fluoro-N-(3-methyl-1,1-dioxidothietan-3-yl)-5-((3-(2,2,2-trifluoroethoxy)pyridin-2-yl)oxy)pyrazolo[1,5-a]pyridine-2-carboxamide], the IC50 is reported as 372 nM. `C[C@@]1(NC(=O)c2nn3ccc(Oc4ncccc4OCC(F)(F)F)cc3c2F)CCS(=O)(=O)C1` [Example 23, (R)-3-Fluoro-N-(3-methyl-1,1-dioxidotetrahydrothiophen-3-yl)-5-((3-(2,2,2-trifluoroethoxy)pyridin-2-yl)oxy)pyrazolo[1,5-a]pyridine-2-carboxamide] gave an IC50 of 817 nM. For `CC1(NC(=O)c2nn3ccc(Oc4ncccc4OCC(F)(F)F)cc3c2Cl)CS(=O)(=O)C1` [Example 25, 3-Chloro-N-(3-methyl-1,1-dioxidothietan-3-yl)-5-((3-(2,2,2-trifluoroethoxy)pyridin-2-yl)oxy)pyrazolo[1,5-a]pyridine-2-carboxamide], the IC50 was 30 nM. With `C[C@@]1(NC(=O)c2nn3ccc(Oc4ncccc4OCC(F)(F)F)cc3c2Cl)CCS(=O)(=O)C1` [Example 26, (R)-3-Chloro-N-(3-methyl-1,1-dioxidotetrahydrothiophen-3-yl)-5-((3-(2,2,2-trifluoroethoxy)pyridin-2-yl)oxy)pyrazolo[1,5-a]pyridine-2-carboxamide] the IC50 was 388 nM. `C[C@]1(NC(=O)c2nn3ccc(Oc4ncccc4OCC(F)(F)F)cc3c2Cl)CCS(=O)(=O)C1` [Example 27, (S)-3-Chloro-N-(3-methyl-1,1-dioxidotetrahydrothiophen-3-yl)-5-((3-(2,2,2-trifluoroethoxy)pyridin-2-yl)oxy)pyrazolo[1,5-a]pyridine-2-carboxamide] showed an IC50 of 400 nM. Molecule `CC1(NC(=O)c2nn3ccc(Oc4ncc(F)cc4OCC(F)(F)F)cc3c2F)CS(=O)(=O)C1` [Example 28, 3-Fluoro-5-((5-fluoro-3-(2,2,2-trifluoroethoxy)pyridin-2-yl)oxy)-N-(3-methyl-1,1-dioxidothietan-3-yl)pyrazolo[1,5-a]pyridine-2-carboxamide] has an IC50 of 129 nM. `C[C@@]1(NC(=O)c2nn3ccc(Oc4ncc(F)cc4OCC(F)(F)F)cc3c2F)CCS(=O)(=O)C1` [Example 29, (R)-3-Fluoro-5-((5-fluoro-3-(2,2,2-trifluoroethoxy)pyridin-2-yl)oxy)-N-(3-methyl-1,1-dioxidotetrahydrothiophen-3-yl)pyrazolo[1,5-a]pyridine-2-carboxamide] gave an IC50 of 277 nM. `CC1(NC(=O)c2nn3ccc(Oc4nccnc4OCC(F)F)cc3c2Cl)CS(=O)(=O)C1` [Example 30, 3-Chloro-5-((3-(2,2-difluoroethoxy)pyrazin-2-yl)oxy)-N-(3-methyl-1,1-dioxidothietan-3-yl)pyrazolo[1,5-a]pyridine-2-carboxamide] gave an IC50 of 78 nM. In the case of `CC1(NC(=O)c2nn3ccc(Oc4nccnc4OCC(F)F)cc3c2F)CS(=O)(=O)C1` [Example 31, 5-((3-(2,2-Difluoroethoxy)pyrazin-2-yl)oxy)-3-fluoro-N-(3-methyl-1,1-dioxidothietan-3-yl)pyrazolo[1,5-a]pyridine-2-carboxamide], the IC50 is reported as 194 nM. `CC1(NC(=O)c2nn3ccc(Oc4nccnc4OCC(F)F)cc3c2F)CCS(=O)(=O)CC1` [Example 32, 5-((3-(2,2-Difluoroethoxy)pyrazin-2-yl)oxy)-3-fluoro-N-(4-methyl-1,1-dioxidotetrahydro-2H-thiopyran-4-yl)pyrazolo[1,5-a]pyridine-2-carboxamide] showed an IC50 of 10 nM. Work on `CC1(NC(=O)c2nn3ccc(Oc4ncc(F)cc4OCC(F)(F)F)c(Cl)c3c2Cl)CCS(=O)(=O)CC1` [Example 33, 3,4-Dichloro-5-((5-fluoro-3-(2,2,2-trifluoroethoxy)pyridin-2-yl)oxy)-N-(4-methyl-1,1-dioxidotetrahydro-2H-thiopyran-4-yl)pyrazolo[1,5-a]pyridine-2-carboxamide] yielded an IC50 of 8.8 nM. Work on `CC1(NC(=O)c2nn3ccc(Oc4ncc(F)cc4OCC(F)(F)F)cc3c2Cl)CCS(=O)(=O)CC1` [Example 34, 3-Chloro-5-((5-fluoro-3-(2,2,2-trifluoroethoxy)pyridin-2-yl)oxy)-N-(4-methyl-1,1-dioxidotetrahydro-2H-thiopyran-4-yl)pyrazolo[1,5-a]pyridine-2-carboxamide] yielded an IC50 of 7.3 nM. `CC1(NC(=O)c2nn3ccc(Oc4nccnc4OCC(F)(F)F)cc3c2Cl)CCS(=O)(=O)CC1` [Example 35, 3-Chloro-N-(4-methyl-1,1-dioxidotetrahydro-2H-thiopyran-4-yl)-5-((3-(2,2,2-trifluoroethoxy)pyrazin-2-yl)oxy)pyrazolo[1,5-a]pyridine-2-carboxamide] was tested, and the IC50 was 18 nM. With `CC1(NC(=O)c2nn3ccc(Oc4ncc(F)cc4OCC(F)(F)F)cc3c2F)CCS(=O)(=O)CC1` [Example 36, 3-Fluoro-5-((5-fluoro-3-(2,2,2-trifluoroethoxy)pyridin-2-yl)oxy)-N-(4-methyl-1,1-dioxidotetrahydro-2H-thiopyran-4-yl)pyrazolo[1,5-a]pyridine-2-carboxamide] the IC50 was 7.3 nM. In the case of `CC1(NC(=O)c2nn3ccc(Oc4ncc(Cl)cc4OCC(F)(F)F)cc3c2F)CS(=O)(=O)C1` [Example 37, 5-((5-Chloro-3-(2,2,2-trifluoroethoxy)pyridin-2-yl)oxy)-3-fluoro-N-(3-methyl-1,1-dioxidothietan-3-yl)pyrazolo[1,5-a]pyridine-2-carboxamide], the IC50 is reported as 7.7 nM. `CC1(NC(=O)c2nn3ccc(Oc4ncc(C#N)cc4OCC(F)(F)F)cc3c2Cl)CCS(=O)(=O)CC1` [Example 41, 3-Chloro-5-((5-cyano-3-(2,2,2-trifluoroethoxy)pyridin-2-yl)oxy)-N-(4-methyl-1,1-dioxidotetrahydro-2H-thiopyran-4-yl)pyrazolo[1,5-a]pyridine-2-carboxamide] was tested, and the IC50 was 5 nM. Work on `CC1(NC(=O)c2cc3cc(Oc4ncc(C#N)cc4OCC(F)(F)F)ccn3n2)CCS(=O)(=O)CC1` [Example 42, 5-((5-Cyano-3-(2,2,2-trifluoroethoxy)pyridin-2-yl)oxy)-N-(4-methyl-1,1-dioxidotetrahydro-2H-thiopyran-4-yl)pyrazolo[1,5-a]pyridine-2-carboxamide] yielded an IC50 of 20 nM.
